Test results taken from ChEMBL document CHEMBL1201861, “Genomics of Drug Sensitity in Cancer screening data, Wellcome Trust Sanger Institute”.
pIC50: −log10 of the molar value.

Experiments:
Assay in all cases: cells
[1] = tested on: SK-MEL-2; assay type: functional, cell-based, Homo sapiens; conditions: Homo sapiens, SK-MEL-2;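 further: growth inhibition of human SK-MEL-2 cells measured with a cell viability assay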
Description: SANGER: Inhibition of human SK-MEL-2 cell growth in a cell viability assay.

[2] = tested on: MPP-89; assay type: functional, cell-based, Homo sapiens; conditions: Homo sapiens, MPP-89;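 further: growth inhibition of human MPP-89 cells, read out with a cell viability assay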
Description: SANGER: Inhibition of human MPP-89 cell growth in a cell viability assay.

[3] = tested on: D283 Med; assay type: functional, cell-based, Homo sapiens; conditions: Homo sapiens, D283 Med
Description: SANGER: Inhibition of human D-283MED cell growth in a cell viability assay.

[4] = tested on: EOL1; assay type: functional, cell-based; conditions: Homo sapiens;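 further: growth inhibition of EoL-1 cells, read out by a cell viability assay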
Description: SANGER: Inhibition of human EoL-1-cell cell growth in a cell viability assay.

[5] = tested on: BB65-RCC; assay type: functional, cell-based, Homo sapiens; conditions: Homo sapiens, BB65-RCC;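 further: growth inhibition of the cell line, measured with a cell viability assay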
Description: SANGER: Inhibition of human BB65-RCC cell growth in a cell viability assay.

[6] = tested on: GOTO; assay type: functional, cell-based, Homo sapiens; conditions: Homo sapiens, GOTO;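 further: growth inhibition of GOTO cells, read out by a cell viability assay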
Description: SANGER: Inhibition of human GOTO cell growth in a cell viability assay.

[7] = tested on: BFTC-905; assay type: functional, cell-based, Homo sapiens; conditions: Homo sapiens, BFTC-905
Description: SANGER: Inhibition of human BFTC-905 cell growth in a cell viability assay.

[8] = tested on: HuP-T3; assay type: functional, cell-based, Homo sapiens; conditions: Homo sapiens, HuP-T3;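 further: HuP-T3 cell growth inhibition, read out with a cell viability assay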
Description: SANGER: Inhibition of human HuP-T3 cell growth in a cell viability assay.

[9] = tested on: SW 962; assay type: functional, cell-based, Homo sapiens; conditions: Homo sapiens, SW 962;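 further: growth inhibition of human SW962 cells, read out by a cell viability assay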
Description: SANGER: Inhibition of human SW962 cell growth in a cell viability assay.

[10] = tested on: CAL-12T; assay type: functional, cell-based, Homo sapiens; conditions: Homo sapiens, CAL-12T;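 further: growth inhibition of human CAL-12T cells, read out with a cell viability assay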
Description: SANGER: Inhibition of human CAL-12T cell growth in a cell viability assay.

[11] = tested on: LAMA-84; assay type: functional, cell-based; conditions: Homo sapiens;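 further: growth inhibition of LAMA-84 cells, read out with a cell viability assay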
Description: SANGER: Inhibition of human LAMA-84 cell growth in a cell viability assay.

[12] = tested on: LS-1034; assay type: functional, cell-based, Homo sapiens; conditions: Homo sapiens, LS-1034
Description: SANGER: Inhibition of human LS-1034 cell growth in a cell viability assay.

[13] = tested on: TE-8; assay type: functional, cell-based, Homo sapiens; conditions: Homo sapiens, TE-8;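 further: growth inhibition of TE-8 cells, measured with a cell viability readout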
Description: SANGER: Inhibition of human TE-8 cell growth in a cell viability assay.

[14] = tested on: ASPC1; assay type: functional, cell-based, Homo sapiens; conditions: Homo sapiens, ASPC1;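 further: growth inhibition of AsPC-1 cells, read out with a cell viability assay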
Description: SANGER: Inhibition of human AsPC-1 cell growth in a cell viability assay.

[15] = tested on: A-375; assay type: functional, cell-based, Homo sapiens; conditions: Homo sapiens, A-375;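 further: growth inhibition of A375 cells, read out with a cell viability assay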
Description: SANGER: Inhibition of human A375 cell growth in a cell viability assay.

[16] = tested on: HT-29; assay type: functional, cell-based, Homo sapiens; conditions: Homo sapiens, HT-29;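 further: growth inhibition of human HT-29 cells, read out by a cell viability assay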
Description: SANGER: Inhibition of human HT-29 cell growth in a cell viability assay.

[17] = tested on: Calu-6; assay type: functional, cell-based, Homo sapiens; conditions: Homo sapiens, Calu-6;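 further: growth of human Calu-6 cells, read out by a cell viability assay, IC50 marking inhibition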
Description: SANGER: Inhibition of human Calu-6 cell growth in a cell viability assay.

[18] = tested on: NCI-H2405; assay type: functional, cell-based, Homo sapiens; conditions: Homo sapiens, NCI-H2405;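 further: growth inhibition of the human cell line, read out with a cell viability assay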
Description: SANGER: Inhibition of human NCI-H2405 cell growth in a cell viability assay.

[19] = tested on: HH; assay type: functional, cell-based; conditions: Homo sapiens
Description: SANGER: Inhibition of human HH cell growth in a cell viability assay.

[20] = tested on: 697; assay type: functional, cell-based; conditions: Homo sapiens
Description: SANGER: Inhibition of human 697 cell growth in a cell viability assay.

[21] = tested on: G-402; assay type: functional, cell-based, Homo sapiens; conditions: Homo sapiens, G-402
Description: SANGER: Inhibition of human G-402 cell growth in a cell viability assay.

[22] = tested on: LOX IMVI; assay type: functional, cell-based; conditions: Homo sapiens
Description: SANGER: Inhibition of human LOXIMVI cell growth in a cell viability assay.

[23] = tested on: HCC2218; assay type: functional, cell-based; conditions: Homo sapiens;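 further: cell viability assay read-out, with IC50 given as the concentration that inhibits growth of the cell line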
Description: SANGER: Inhibition of human HCC2218 cell growth in a cell viability assay.

[24] = tested on: SW1783; assay type: functional, cell-based; conditions: Homo sapiens;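 further: cell growth inhibition measured with a viability assay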
Description: SANGER: Inhibition of human SW1783 cell growth in a cell viability assay.

[25] = tested on: CAL-27; assay type: functional, cell-based, Homo sapiens; conditions: Homo sapiens, CAL-27;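 further: Viability-based readout, IC50 reflecting inhibition of CAL-27 cell growth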
Description: SANGER: Inhibition of human CAL-27 cell growth in a cell viability assay.

[26] = tested on: CHL-1; assay type: functional, cell-based, Homo sapiens; conditions: Homo sapiens, CHL-1;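 further: cell growth inhibition, read out with a cell viability assay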
Description: SANGER: Inhibition of human CHL-1 cell growth in a cell viability assay.

[27] = tested on: UMUC3; assay type: functional, cell-based, Homo sapiens; conditions: Homo sapiens, UMUC3;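 further: growth inhibition of human UM-UC-3 cells, read out with a cell viability assay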
Description: SANGER: Inhibition of human UM-UC-3 cell growth in a cell viability assay.

[28] = tested on: NCI-H1693; assay type: functional, cell-based, Homo sapiens; conditions: Homo sapiens, NCI-H1693;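 further: growth inhibition of the human cell line, read out with a cell viability assay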
Description: SANGER: Inhibition of human NCI-H1693 cell growth in a cell viability assay.

[29] = tested on: KLE; assay type: functional, cell-based, Homo sapiens; conditions: Homo sapiens, KLE;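 further: growth inhibition of human KLE cells, read out with a cell viability assay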
Description: SANGER: Inhibition of human KLE cell growth in a cell viability assay.

[30] = tested on: no-10; assay type: functional, cell-based, Homo sapiens; conditions: Homo sapiens;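 further: growth inhibition of no-10 cells, read out with a cell viability assay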
Description: SANGER: Inhibition of human no-10 cell growth in a cell viability assay.

[31] = tested on: MZ2-MEL; assay type: functional, cell-based, Homo sapiens; conditions: Homo sapiens, MZ2-MEL;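 further: growth inhibition of MZ2-MEL cells read out with a cell viability assay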
Description: SANGER: Inhibition of human MZ2-MEL cell growth in a cell viability assay.

[32] = tested on: COLO-829; assay type: functional, cell-based, Homo sapiens; conditions: Homo sapiens, COLO-829
Description: SANGER: Inhibition of human COLO-829 cell growth in a cell viability assay.

[33] = tested on: KP-N-YS; assay type: functional, cell-based; conditions: Homo sapiens;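 further: cell viability assay measuring inhibition of cell line growth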
Description: SANGER: Inhibition of human KP-N-YS cell growth in a cell viability assay.

[34] = tested on: NCI-H292; assay type: functional, cell-based, Homo sapiens; conditions: Homo sapiens, NCI-H292;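 further: growth inhibition of NCI-H292 cells, read out with a cell viability assay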
Description: SANGER: Inhibition of human NCI-H292 cell growth in a cell viability assay.

[35] = tested on: MKN-1; assay type: functional, cell-based, Homo sapiens; conditions: Homo sapiens, MKN-1;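 further: growth inhibition of human MKN1 cells, read out by a cell viability measurement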
Description: SANGER: Inhibition of human MKN1 cell growth in a cell viability assay.

[36] = tested on: Calu-3; assay type: functional, cell-based, Homo sapiens; conditions: Homo sapiens, Calu-3;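 further: growth inhibition of human Calu-3 cells, determined with a cell viability assay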
Description: SANGER: Inhibition of human Calu-3 cell growth in a cell viability assay.

[37] = tested on: NCI-H358; assay type: functional, cell-based, Homo sapiens; conditions: Homo sapiens, NCI-H358;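 further: growth inhibition of NCI-H358 human cells, read out with a cell viability assay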
Description: SANGER: Inhibition of human NCI-H358 cell growth in a cell viability assay.

[38] = tested on: T-24; assay type: functional, cell-based, Homo sapiens; conditions: Homo sapiens, T-24;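 further: growth inhibition of T-24 cells, read out with a cell viability assay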
Description: SANGER: Inhibition of human T-24 cell growth in a cell viability assay.

[39] = tested on: AGS; assay type: functional, cell-based, Homo sapiens; conditions: Homo sapiens, AGS;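 further: growth inhibition of AGS cells, determined with a cell viability assay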
Description: SANGER: Inhibition of human AGS cell growth in a cell viability assay.

[40] = tested on: 786-0; assay type: functional, cell-based, Homo sapiens; conditions: Homo sapiens
Description: SANGER: Inhibition of human 786-0 cell growth in a cell viability assay.

[41] = tested on: NCI-H1993; assay type: functional, cell-based, Homo sapiens; conditions: Homo sapiens, NCI-H1993;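 further: growth inhibition of the cancer cell line, assessed with a cell viability assay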
Description: SANGER: Inhibition of human NCI-H1993 cell growth in a cell viability assay.

[42] = tested on: D-247MG; assay type: functional, cell-based, Homo sapiens; conditions: Homo sapiens, D-247MG
Description: SANGER: Inhibition of human D-247MG cell growth in a cell viability assay.

[43] = tested on: A704; assay type: functional, cell-based, Homo sapiens; conditions: Homo sapiens, A704;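 further: growth inhibition of human A704 cells, read out with a cell viability assay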
Description: SANGER: Inhibition of human A704 cell growth in a cell viability assay.

[44] = tested on: BEN; assay type: functional, cell-based, Homo sapiens; conditions: Homo sapiens, BEN;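 further: growth inhibition of the BEN cell line, read out with a cell viability assay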
Description: SANGER: Inhibition of human BEN cell growth in a cell viability assay.

[45] = tested on: TE-1; assay type: functional, cell-based, Homo sapiens; conditions: Homo sapiens, TE-1;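 further: growth inhibition of the human TE-1 cell line, read out with a cell viability assay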
Description: SANGER: Inhibition of human TE-1 cell growth in a cell viability assay.

[46] = tested on: EGI-1; assay type: functional, cell-based, Homo sapiens; conditions: Homo sapiens, EGI-1;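 further: cell viability readout used to gauge growth inhibition of EGI-1 cells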
Description: SANGER: Inhibition of human EGI-1 cell growth in a cell viability assay.

[47] = tested on: SH-4; assay type: functional, cell-based, Homo sapiens; conditions: Homo sapiens, SH-4;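 further: growth inhibition of SH-4 cells, read out with a cell viability assay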
Description: SANGER: Inhibition of human SH-4 cell growth in a cell viability assay.

[48] = tested on: MHH-NB-11; assay type: functional, cell-based, Homo sapiens; conditions: Homo sapiens, MHH-NB-11;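 further: growth inhibition of human MHH-NB-11 cells, read out by a cell viability assay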
Description: SANGER: Inhibition of human MHH-NB-11 cell growth in a cell viability assay.

[49] = tested on: SK-MES-1; assay type: functional, cell-based, Homo sapiens; conditions: Homo sapiens, SK-MES-1;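 further: growth inhibition of human SK-MES-1 cells, read out with a cell viability assay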
Description: SANGER: Inhibition of human SK-MES-1 cell growth in a cell viability assay.

[50] = tested on: TE-11; assay type: functional, cell-based, Homo sapiens; conditions: Homo sapiens, TE-11;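 further: growth inhibition of human TE-11 cells, read out by a cell viability assay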
Description: SANGER: Inhibition of human TE-11 cell growth in a cell viability assay.

[51] = tested on: T98G; assay type: functional, cell-based, Homo sapiens; conditions: Homo sapiens, T98G;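 further: growth inhibition of T98G cells, read out by a cell viability assay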
Description: SANGER: Inhibition of human T98G cell growth in a cell viability assay.

`O=C1N=C(NCc2cccs2)S/C1=C\c1ccc2ncccc2c1` was tested, and the pIC50 [1] was < 5.30, the pIC50 [2] was < 5.30 and the pIC50 [3] was < 5.30. The pIC50 [4] was < 5.30, the pIC50 [5] was < 5.30 and the pIC50 [6] was < 5.30. The pIC50 [7] was < 5.30, the pIC50 [8] was < 5.30 and the pIC50 [9] was < 5.30. For the same compound, the pIC50 [10] was < 5.30, the pIC50 [11] was < 5.30 and the pIC50 [12] was < 5.30. The pIC50 [13] was < 5.30, the pIC50 [14] was < 5.30 and the pIC50 [15] was < 5.30. For the same compound, the pIC50 [16] was < 5.30, the pIC50 [17] was < 5.30 and the pIC50 [18] was 5.32. For the same compound, the pIC50 [19] was < 5.30, the pIC50 [20] was < 5.30 and the pIC50 [21] was < 5.30. The pIC50 [22] was < 5.30, the pIC50 [23] was < 5.30 and the pIC50 [24] was < 5.30. For the same compound, the pIC50 [25] was < 5.30, the pIC50 [26] was < 5.30 and the pIC50 [27] was 5.56. The pIC50 [28] was < 5.30, the pIC50 [29] was < 5.30 and the pIC50 [30] was < 5.30. The pIC50 [31] was < 5.30, the pIC50 [32] was < 5.30 and the pIC50 [33] was < 5.30. The pIC50 [34] was < 5.30, the pIC50 [35] was < 5.30 and the pIC50 [36] was < 5.30. For the same compound, the pIC50 [37] was < 5.30, the pIC50 [38] was < 5.30 and the pIC50 [39] was < 5.30. The pIC50 [40] was < 5.30, the pIC50 [41] was < 5.30 and the pIC50 [42] was < 5.30. For the same compound, the pIC50 [43] was < 5.30, the pIC50 [44] was < 5.30 and the pIC50 [45] was < 5.30. For the same compound, the pIC50 [46] was < 5.30, the pIC50 [47] was < 5.30 and the pIC50 [48] was < 5.30. The pIC50 [49] was < 5.30, the pIC50 [50] was < 5.30 and the pIC50 [51] was 5.86.
